Cc1cc([N+](=O)[O-])ccc1N
Conditions	solubility (mole fraction)
in 2-butanone, 278.15 K	0.0846
in 2-butanone, 280.65 K	0.0899
in 2-butanone, 283.15 K	0.0955
in 2-butanone, 285.65 K	0.101
in 2-butanone, 288.15 K	0.107
in 2-butanone, 290.65 K	0.114
in 2-butanone, 293.15 K	0.12
in 2-butanone, 295.65 K	0.127
in 2-butanone, 298.15 K	0.134
in 2-butanone, 300.65 K	0.141
in 2-butanone, 303.15 K	0.149
in 2-butanone, 305.65 K	0.157
in 2-butanone, 308.15 K	0.165
in 2-butanone, 310.65 K	0.174
in 2-butanone, 313.15 K	0.183
in acetone, 278.15 K	0.0764
in acetone, 280.65 K	0.0815
in acetone, 283.15 K	0.0875
in acetone, 285.65 K	0.0933
in acetone, 288.15 K	0.0996
in acetone, 290.65 K	0.106
in acetone, 293.15 K	0.113
in acetone, 295.65 K	0.12
in acetone, 298.15 K	0.127
in acetone, 300.65 K	0.135
in acetone, 303.15 K	0.142
in acetone, 305.65 K	0.151
in acetonitrile, 278.15 K	0.0308
in acetonitrile, 280.65 K	0.0335
in acetonitrile, 283.15 K	0.0362
in acetonitrile, 285.65 K	0.039
in acetonitrile, 288.15 K	0.0423
in acetonitrile, 290.65 K	0.0456
in acetonitrile, 293.15 K	0.0491
in acetonitrile, 295.65 K	0.0528
in acetonitrile, 298.15 K	0.0566
in acetonitrile, 300.65 K	0.0607
in acetonitrile, 303.15 K	0.0651
in acetonitrile, 305.65 K	0.0699
in acetonitrile, 308.15 K	0.0747
in acetonitrile, 310.65 K	0.0797
in acetonitrile, 313.15 K	0.0852
in cyclohexane, 283.15 K	2.5e-05
in cyclohexane, 285.65 K	2.87e-05
in cyclohexane, 288.15 K	3.37e-05
in cyclohexane, 290.65 K	3.87e-05
in cyclohexane, 293.15 K	4.47e-05
in cyclohexane, 295.65 K	5.27e-05
in cyclohexane, 298.15 K	6.13e-05
in cyclohexane, 300.65 K	6.99e-05
in cyclohexane, 303.15 K	8.08e-05
in cyclohexane, 305.65 K	9.26e-05
in cyclohexane, 308.15 K	0.000108
in cyclohexane, 310.65 K	0.000122
in cyclohexane, 313.15 K	0.000139
in ethanol, 278.15 K	0.00732
in ethanol, 280.65 K	0.00807
in ethanol, 283.15 K	0.00887
in ethanol, 285.65 K	0.00974
in ethanol, 288.15 K	0.0107
in ethanol, 290.65 K	0.0117
in ethanol, 293.15 K	0.0127
in ethanol, 295.65 K	0.0139
in ethanol, 298.15 K	0.0152
in ethanol, 300.65 K	0.0165
in ethanol, 303.15 K	0.018
in ethanol, 305.65 K	0.0197
in ethanol, 308.15 K	0.0213
in ethanol, 310.65 K	0.0231
in ethanol, 313.15 K	0.025
in ethyl acetate, 278.15 K	0.062
in ethyl acetate, 280.65 K	0.0669
in ethyl acetate, 283.15 K	0.0722
in ethyl acetate, 285.65 K	0.0776
in ethyl acetate, 288.15 K	0.0837
in ethyl acetate, 290.65 K	0.0897
in ethyl acetate, 293.15 K	0.096
in ethyl acetate, 295.65 K	0.103
in ethyl acetate, 298.15 K	0.11
in ethyl acetate, 300.65 K	0.117
in ethyl acetate, 303.15 K	0.125
in ethyl acetate, 305.65 K	0.133
in ethyl acetate, 308.15 K	0.142
in ethyl acetate, 310.65 K	0.151
in ethyl acetate, 313.15 K	0.16
in isopropanol, 278.15 K	0.00459
in isopropanol, 280.65 K	0.00511
in isopropanol, 283.15 K	0.00572
in isopropanol, 285.65 K	0.00635
in isopropanol, 288.15 K	0.00707
in isopropanol, 290.65 K	0.00781
in isopropanol, 293.15 K	0.00865
in isopropanol, 295.65 K	0.00961
in isopropanol, 298.15 K	0.0106
in isopropanol, 300.65 K	0.0118
in isopropanol, 303.15 K	0.0129
in isopropanol, 305.65 K	0.0142
in isopropanol, 308.15 K	0.0157
in isopropanol, 310.65 K	0.0172
in isopropanol, 313.15 K	0.0189
in methanol, 278.15 K	0.00834
in methanol, 280.65 K	0.00913
in methanol, 283.15 K	0.0101
in methanol, 285.65 K	0.0109
in methanol, 288.15 K	0.0119
in methanol, 290.65 K	0.0131
in methanol, 293.15 K	0.0142
in methanol, 295.65 K	0.0155
in methanol, 298.15 K	0.0168
in methanol, 300.65 K	0.018
in methanol, 303.15 K	0.0198
in methanol, 305.65 K	0.0213
in methanol, 308.15 K	0.0231
in methanol, 310.65 K	0.0249
in methanol, 313.15 K	0.027
in n-butanol, 278.15 K	0.00492
in n-butanol, 280.65 K	0.00552
in n-butanol, 283.15 K	0.00618
in n-butanol, 285.65 K	0.00691
in n-butanol, 288.15 K	0.00778
in n-butanol, 290.65 K	0.00858
in n-butanol, 293.15 K	0.00951
in n-butanol, 295.65 K	0.0106
in n-butanol, 298.15 K	0.0118
in n-butanol, 300.65 K	0.0131
in n-butanol, 303.15 K	0.0145
in n-butanol, 305.65 K	0.016
in n-butanol, 308.15 K	0.0177
in n-butanol, 310.65 K	0.0196
in n-butanol, 313.15 K	0.0216
in n-propanol, 278.15 K	0.00631
in n-propanol, 280.65 K	0.00701
in n-propanol, 283.15 K	0.00776
in n-propanol, 285.65 K	0.00853
in n-propanol, 288.15 K	0.00939
in n-propanol, 290.65 K	0.0103
in n-propanol, 293.15 K	0.0113
in n-propanol, 295.65 K	0.0124
in n-propanol, 298.15 K	0.0136
in n-propanol, 300.65 K	0.0148
in n-propanol, 303.15 K	0.0162
in n-propanol, 305.65 K	0.0176
in n-propanol, 308.15 K	0.0192
in n-propanol, 310.65 K	0.0209
in n-propanol, 313.15 K	0.0227
in toluene, 278.15 K	0.00159
in toluene, 280.65 K	0.00178
in toluene, 283.15 K	0.00204
in toluene, 285.65 K	0.0023
in toluene, 288.15 K	0.00258
in toluene, 290.65 K	0.00285
in toluene, 293.15 K	0.00317
in toluene, 295.65 K	0.00353
in toluene, 298.15 K	0.00391
in toluene, 300.65 K	0.00439
in toluene, 303.15 K	0.0048
in toluene, 305.65 K	0.00527
in toluene, 308.15 K	0.00584
in toluene, 310.65 K	0.00645
in toluene, 313.15 K	0.00714

Reference: BigSolDB 2.1
